For two compounds, melting point and IC50 results are on record in patent US7442794B2, “Rearranged pentanols, a process for their production and their use as anti-inflammatory agents” (Schering AG, priority 2003, dated 2008).

The target of data set [1] is glucocorticoid receptor (GR) (Homo sapiens, UniProt P04150). Kind of data set: biochemical. An excerpt:
The binding of the substances to the glucocorticoid receptor (GR) and other steroid hormone receptors (mineral corticoid receptor (MR), progesterone receptor (PR) and androgen receptor (AR)) is examined with the aid of recombinantly produced receptors. Cytosol preparations of Sf9 cells, which had been infected with recombinant baculoviruses, which code for the GR, are used for the binding studies.

Data set [2] relates to secretion of cytokine IL-8 in human monocyte cell line THP-1 triggered by lipopolysaccharide (LPS). Kind of data set: Inhibition of LPS-triggered secretion of cytokine IL-8 in THP-1 cells (ELISA). It counts as cell-based. To be noted: LPS-triggered IL-8 secretion, THP-1, supernatant ELISA, read-out: inhibition IC50(IL8). As to the method:
The concentration of the cytokines was determined in the supernatant by means of commercially available ELISA kits.
(In general: An ELISA detects its analyte on a solid surface through an enzyme-linked reagent.)

Chain of glucocorticoid receptor (GR) (P04150 whole entry, species assumed): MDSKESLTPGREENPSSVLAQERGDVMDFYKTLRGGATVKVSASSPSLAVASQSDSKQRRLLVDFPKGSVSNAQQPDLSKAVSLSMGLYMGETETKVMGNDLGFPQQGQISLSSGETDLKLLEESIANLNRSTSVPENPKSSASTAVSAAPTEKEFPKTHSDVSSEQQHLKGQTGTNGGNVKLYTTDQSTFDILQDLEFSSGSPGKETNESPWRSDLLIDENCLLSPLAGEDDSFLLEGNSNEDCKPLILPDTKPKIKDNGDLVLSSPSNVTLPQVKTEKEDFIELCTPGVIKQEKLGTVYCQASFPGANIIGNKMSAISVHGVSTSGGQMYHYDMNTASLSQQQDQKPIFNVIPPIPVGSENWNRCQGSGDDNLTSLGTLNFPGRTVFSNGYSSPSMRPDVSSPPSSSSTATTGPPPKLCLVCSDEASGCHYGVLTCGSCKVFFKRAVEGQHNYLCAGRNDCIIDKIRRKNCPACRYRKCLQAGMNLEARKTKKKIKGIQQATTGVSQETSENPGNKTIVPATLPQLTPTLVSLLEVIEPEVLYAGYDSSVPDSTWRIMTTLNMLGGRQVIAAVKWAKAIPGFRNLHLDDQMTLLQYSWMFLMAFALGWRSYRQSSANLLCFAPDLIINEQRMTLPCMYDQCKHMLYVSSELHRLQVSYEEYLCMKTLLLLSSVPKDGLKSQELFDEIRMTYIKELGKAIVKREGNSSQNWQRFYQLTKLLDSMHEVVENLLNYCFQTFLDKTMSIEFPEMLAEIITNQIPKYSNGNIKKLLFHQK

What is called melting point is the temperature, or range, at which the solid turns liquid. Compound `C=C(C)CC(O)(C(Nc1ccc(F)c2nc(C)ncc12)c1ccc(Cl)cc1OC)C(F)(F)F` (racemic) [Example 7, 2-{4-Chloro-alpha-[(8-fluoro-2-methylquinazolin-5-yl)amino]-2-methoxybenzyl}-1,1,1-trifluoro-4-methylpent-4-en-2-ol] showed a melting point of 72 to 73 °C. One may read the IC50 as the concentration that inhibits the measured activity by half. For the compound `C=C(C)CC(O)(C(Nc1cccc2c(=O)[nH]ccc12)c1cc(Br)ccc1O)C(F)(F)F` (stereo not drawn) [Example 3, 5-{[1-(5-Bromo-2-hydroxyphenyl)-2-hydroxy-4-methyl-2-(trifluoromethyl)-pent-4-en-1-yl]amino}-isoquinolin-1(2H)-one], the concentration for half-maximal inhibition (IC50) worked out at 64 nM in data set [1] and 25 nM in data set [2].
